The record followed here is patent EP0626170A2, “Stabilisation of pharmacologically active compounds in sustained release compositions” (SANDOZ LTD., priority 1993, dated 1994).

A short description of the data set: Stability of compound A microspheres: degradation products by HPLC after manufacture, γ-irradiation and storage. The class given is physicochemical. As to conditions: for Increase of degradation product (%) after storage at 5°C / Increase of degradation product (%) after storage at 25°C: further increase (+) on storage; for degradation: during manufacture, sterilization and 1 month storage (5°C); for Increase of degradation product (%) after man. + γ-irrad. / Increase of degradation product (%) after manufacture: microspheres, pilot batches. The method, then: Microparticles were produced by a modified triple-emulsion technique. Compound A pamoate salt was dispersed in a small amount of water (14 mg pamoate salt in 0.1 ml) and the dispersion was intensively homogenized using an Ultra-Turrax T25 (Janke & Kunkel IKA-Werk) into a solution (10-25%) of DL-PLG-GLU in methylene chloride (emulsion process). Alternatively, compound A pamoate salt was directly dispersed into the solution of polymer in methylene chloride (suspension process). The resulting primary water/oil (W/O) emulsion or suspension (S/O) was then intensively mixed with the external phase (in a ratio of 1:40), a gelatin containing aqueous solution. After stirring for one hour in order to evaporate the methylene chloride, the generated microspheres were collected by filtration, washed with water and dried under high vacuum at room temperature for 1 - 3 days. Storage was effected at 5°C. Sterilization was effected by γ-irridation (25 kGy required) by using nitrogen as a protecting gas.
Compound A content and purity of the microparticles was determined by HPLC (RP-18 columns, acetonitril - tetramethyl ammonium hydroxide/water gradient) after extraction of the peptide from the microspheres using tetrahydrofuran acetate buffer, pH 4.2 (1:1).
The generation of degradation products of compound A during the manufacture process, γ-irradiation and subsequent strorage at various temperatures is represented in Table 2. Potential stability problems arose with the acetate and the phosphate salts of compound A: during manufacture, sterilization and 1 month storage (5°C) 5 - 10% degradation occurred. These problems could be circumvented by the use of the pamoate. After manufacture, sterilization and three months of storage even at 25°C there was an increase of degradation products of less than 1.5%, more particularly of less than 0.5% after manufacture, less than 1.0% from the beginning of manufacture to just after irradiation and , inclusive of storage for 3 months at 25°C less than 1.5%.

Take `CC(=O)N[C@H](Cc1ccc2ccccc2c1)C(=O)N[C@H](Cc1ccc(Cl)cc1)C(=O)N[C@H](Cc1c[nH]c2ccccc12)C(=O)N[C@@H](CO)C(=O)N[C@@H](Cc1ccc(O)cc1)C(=O)N[C@H](CCCCNCC(O)CO)C(=O)N[C@@H](CC(C)C)C(=O)N[C@@H](CCCCNCC(O)CO)C(=O)N1CCC[C@H]1C(=O)N[C@H](C)C(N)=O` (single isomer, unassigned) [Compound A phosphate]: the degradation is on record as 5 - 10%, the “Increase of degradation product (%) after man. + γ-irrad.” value (“Increase … (%) after man. + γ-irrad.” below) is 7.0 - 9.0% and the “Increase of degradation product (%) after manufacture” value (from here on “Increase … (%) after manufacture”) was 1.2 - 3.5%. In addition, where the note is “1 month”, the “Increase of degradation product (%) after storage at 5°C” value (shortened to “Increase … (%) after storage at 5°C”) is “+ 0.7%” and the “Increase of degradation product (%) after storage at 25°C” value (shortened to “Increase … (%) after storage at 25°C”) was “+ 1.6%”.
In the case of `CC(=O)N[C@H](Cc1ccc2ccccc2c1)C(=O)N[C@H](Cc1ccc(Cl)cc1)C(=O)N[C@H](Cc1c[nH]c2ccccc12)C(=O)N[C@@H](CO)C(=O)N[C@@H](Cc1ccc(O)cc1)C(=O)N[C@H](CCCCNCC(O)CO)C(=O)N[C@@H](CC(C)C)C(=O)N[C@@H](CCCCNCC(O)CO)C(=O)N1CCC[C@H]1C(=O)N[C@H](C)C(N)=O` (single isomer, unassigned) [Compound A pamoate], the “Increase … (%) after man. + γ-irrad.” value is on record as 0.4 - 0.8% and the “Increase … (%) after manufacture” value is given as 0.1 - 0.4%. Further, under “3 months”, the “Increase … (%) after storage at 5°C” value is on record as “+ 0.4%” and the “Increase … (%) after storage at 25°C” value is “+ 0.6%”. For the same compound, the “increase of degradation products” value (after manufacture) is “less than 0.5%”. For the same compound, the “increase of degradation products” value (after manufacture, sterilization and three months of storage at 25°C) is listed as “less than 1.5%”. For the same compound, under “from the beginning of manufacture to just after irradiation”, the “increase of degradation products” value is “less than 1.0%”.
Turning to `CC(=O)N[C@H](Cc1ccc2ccccc2c1)C(=O)N[C@H](Cc1ccc(Cl)cc1)C(=O)N[C@H](Cc1c[nH]c2ccccc12)C(=O)N[C@@H](CO)C(=O)N[C@@H](Cc1ccc(O)cc1)C(=O)N[C@H](CCCCNCC(O)CO)C(=O)N[C@@H](CC(C)C)C(=O)N[C@@H](CCCCNCC(O)CO)C(=O)N1CCC[C@H]1C(=O)N[C@H](C)C(N)=O` (single isomer, unassigned) [Compound A acetate], the degradation is 5 - 10%, the “Increase … (%) after man. + γ-irrad.” value is 4.2 - 8.3% and the “Increase … (%) after manufacture” value is recorded as 0.4 - 4.2%. Also, for the setting “1 month”, the “Increase … (%) after storage at 5°C” value is recorded as “+ 0.6%” and the “Increase … (%) after storage at 25°C” value is on record as “+ 1.3%”.
